Data taken from patent US20020052295A1, “Diacyl derivatives of propylene diamine having herbicidal activity” (priority 1999, published 2002).

How the values were obtained:
Conditions in all cases: lowest tested rate giving 80% or greater inhibition, approx. 14 days after planting and treating, greenhouse
AMARE = experiment: Pre-emergence herbicidal activity on AMARE (redroot pigweed); type: in vivo, Amaranthus retroflexus
Excerpt: (§1) All such uses, and the biological activity enabling such uses, are embraced by the term “herbicidal” herein. Tables 15 and 16 summarize results of tests conducted as described below to determine the pre-emergence herbicidal activity, in the form of a GR80 value, of illustrative compounds of this invention. […] Where herbicidal activity was evident but 80% inhibition was not achieved at the highest rate tested (typically 1000 g/ha), an asterisk (*) is shown in the following tables. Herbicidal activity evident in the form of symptoms of phytotoxicity, in the absence of at least 80% inhibition at any rate, is indicated in the tables by “phyto”. A blank cell in the following tables indicates no herbicidal or phytotoxic response at any rate tested.
(§2) The pre-emergence tests were conducted by the following procedure. Topsoil was sieved to pass through a 1.27 cm screen. Fertilizer was added to the topsoil and the mixture was then sterilized by heating. The topsoil mixture was placed in a pot and compacted to a depth of 1.0 to 1.25 cm from the top of the pot. Seeds of each of several monocotyledonous and dicotyledonous annual plant species were placed on top of the soil. Additional soil was subsequently placed over the seeds to level-fill the pot. A known amount of each test compound dissolved or suspended in an appropriate organic solvent was diluted with a 50:50 mix of acetone and water and applied to the surface of the soil. After treatment the plants were placed in a greenhouse with a 30/21° C. day/night temperature regime where they received 0.64 cm of overhead irrigation. All subsequent watering consisted of a light overhead mist and/or subirrigation as needed for germination and growth.
(§3) Approximately 14 days after planting and treating, the plants were observed and herbicidal efficacy recorded as percent inhibition by comparison with untreated plants.
(§4) The plant species usually regarded as weeds which were utilized in the tests are identified in the tables below according to the following legend, in which “d” indicates a dicotyledonous species and “m” a monocotyledonous species. All monocotyledonous species included in the tests herein are grasses.

PANMI = experiment: Pre-emergence herbicidal activity on PANMI (wild proso millet); type: in vivo, Panicum miliaceum
Excerpt: as §1, §2, §3, §4

SETFA = experiment: Pre-emergence herbicidal activity on SETFA (giant foxtail); type: in vivo, Setaria faberi
Excerpt: as §1, §2, §3, §4

PANDI = experiment: Pre-emergence herbicidal activity on PANDI (fall panicum); type: in vivo, Panicum dichotomiflorum
Excerpt: as §1, §2, §3, §4

DIGSA = experiment: Pre-emergence herbicidal activity on DIGSA (large crabgrass); type: in vivo, Digitaria sanguinalis
Excerpt: as §1, §2, §3, §4

DATST = experiment: Pre-emergence herbicidal activity on DATST (jimsonweed); type: in vivo, Datura stramonium
Excerpt: as §1, §2, §3, §4

CHEAL = experiment: Pre-emergence herbicidal activity on CHEAL (common lambsquarters); type: in vivo, Chenopodium album
Excerpt: as §1, §2, §3, §4

POROL = experiment: Pre-emergence herbicidal activity on POROL (common purslane); type: in vivo, Portulaca oleracea
Excerpt: as §1, §2, §3, §4

CIRAR = experiment: Pre-emergence herbicidal activity on CIRAR (canada thistle, seedling); type: in vivo, Cirsium arvense
Excerpt: as §1, §2, §3, §4

ABUTH = experiment: Pre-emergence herbicidal activity on ABUTH (velvetleaf); type: in vivo, Abutilon theophrasti
Excerpt: as §1, §2, §3, §4

SOLNI = experiment: Pre-emergence herbicidal activity on SOLNI (black nightshade); type: in vivo, Solanum nigrum
Excerpt: as §1, §2, §3, §4

SORHA = experiment: Pre-emergence herbicidal activity on SORHA (johnsongrass, seedling); type: in vivo, Sorghum halepense
Excerpt: as §1, §2, §3, §4

BRAPP = experiment: Pre-emergence herbicidal activity on BRAPP (broadleaf signalgrass); type: in vivo, Brachiaria platyphylla
Excerpt: as §1, §2, §3, §4

| Compound | Pre-emergence activity (GR80) on AMARE (AMARE) [g/ha] | Pre-emergence activity (GR80) on PANMI (PANMI) | Pre-emergence activity (GR80) on SETFA (SETFA) | Pre-emergence activity (GR80) on PANDI (PANDI) | Pre-emergence activity (GR80) on DIGSA (DIGSA) | Pre-emergence activity (GR80) on DATST (DATST) | Pre-emergence activity (GR80) on CHEAL (CHEAL) | Pre-emergence activity (GR80) on PORAL (POROL) [g/ha] | Pre-emergence activity (GR80) on CIRAR (CIRAR) | Pre-emergence activity (GR80) on ABUTH (ABUTH) | Pre-emergence activity (GR80) on SOLNI (SOLNI) | Pre-emergence activity (GR80) on SORHA (SORHA) | Pre-emergence activity (GR80) on BRAPP (BRAPP) [g/ha] |
| --- | --- | --- | --- | --- | --- | --- | --- | --- | --- | --- | --- | --- | --- |
| CC(CNC(=O)c1cccc(C(F)(F)F)c1)NC(=O)c1ccc(F)c(C(F)(F)F)c1 (stereo not shown) [Example 6] | 1000 | phyto | phyto | phyto | phyto |  |  |  |  |  |  |  |  |
| O=C(NCC(CF)NC(=O)c1cccc(C(F)(F)F)c1)c1cccc(C(F)(F)F)c1 (stereo not shown) [Example 10, N,N′-(3-fluoro-1,2-propanediylbis)-3-(trifluoromethyl) benzamide] | 500 | phyto | phyto | 1000 g/ha | phyto | phyto | 750 g/ha | 1000 | phyto |  |  |  |  |
| Cc1c(C(=O)NC(C)CNC(=O)c2cccc(C(F)(F)F)c2)cccc1C(F)(F)F (stereo not shown) [Example 16] | 250 | 1000 g/ha | 500 g/ha | * (Where herbicidal activity was evident but 80% inhibition was not achieved at the highest rate tested (typically 1000 g/ha), an asterisk (*) is shown) | 750 g/ha | 1000 g/ha | 1000 g/ha |  | 750 g/ha | * (Where herbicidal activity was evident but 80% inhibition was not achieved at the highest rate tested (typically 1000 g/ha), an asterisk (*) is shown) | 500 g/ha |  |  |
| COc1c(C(=O)NC(C)CNC(=O)c2cccc(C(F)(F)F)c2)cccc1C(F)(F)F (stereo not shown) [Example 17] | 1000 |  | phyto | phyto | 1000 g/ha | phyto | 1000 g/ha | 1000 |  |  | phyto |  |  |
| CC(CNC(=O)c1cccc(C(F)(F)F)c1)NC(=O)c1cccc(C(F)(F)F)c1OCc1ccccc1 (stereo not shown) [Example 20] | 1000 | phyto |  | phyto | phyto |  | phyto |  | phyto |  |  |  |  |
| CCOc1c(F)cccc1C(=O)N[C@H](C)CNC(=O)c1cccc(C(F)(F)F)c1 [Example 41, R-2-ethoxy-3-fluoro-N-[1-methyl-2-(3-trifluoromethyl)phenylcarbonylamino]ethylbenzamide] | 250 | phyto | 1000 g/ha | 750 g/ha |  | 1000 g/ha | 750 g/ha | 500 |  |  | phyto | phyto |  |
| Cc1c(I)cccc1C(=O)NC(C)CNC(=O)c1cccc(C(F)(F)F)c1 (stereo not shown) [Example 61] | 750 |  | 1000 g/ha | 750 g/ha | 1000 g/ha | 1000 g/ha | 1000 g/ha | 500 | 250 g/ha | * (Where herbicidal activity was evident but 80% inhibition was not achieved at the highest rate tested (typically 1000 g/ha), an asterisk (*) is shown) | 250 g/ha |  |  |
| COc1c(C)cccc1C(=O)NC(C)CNC(=O)c1cccc(C(F)(F)F)c1 (stereo not shown) [Example 68] |  |  |  | phyto | phyto |  |  |  |  |  |  |  |  |
| CC(CNC(=O)c1cccc(F)c1)NC(=O)c1cccc(C(F)(F)F)c1F (stereo not shown) [Example 142] | 125 | 1000 g/ha | 125 g/ha | 500 g/ha | 250 g/ha | 750 g/ha | 500 g/ha | 125 | 64 g/ha | 1000 g/ha | 750 g/ha |  | 750 |
| CC(CNC(=O)c1cccc(Cl)c1)NC(=O)c1cccc(C(F)(F)F)c1F (stereo not shown) [Example 145] | 125 |  | 750 g/ha | 500 g/ha | 250 g/ha |  | 125 g/ha | 125 | 125 g/ha | 500 g/ha | 1000 g/ha |  |  |
| Cc1c(Cl)cccc1C(=O)NCC(C)NC(=O)c1cccc(Cl)c1C (stereo not shown) [Example 203] |  |  |  |  |  | phyto | 1000 g/ha |  | phyto | phyto | phyto |  |  |
| CC(CNC(=O)c1cccc(C(F)(F)F)c1)NC(=O)c1c(-c2ccc(F)cc2Cl)noc1C(F)(F)Cl (stereo not shown) [Example 264] | 250 |  |  | 1000 g/ha |  | 1000 g/ha | 500 g/ha | 500 |  |  | 250 g/ha |  |  |
